In this test the target is human-derived PIKfyve kinase (Homo sapiens (Human), UniProt Q9Y2I7). As to the kind of experiment: PIKfyve enzyme inhibition assay (ADP-Glo). It is filed as biochemical. To be noted: PIKfyve enzyme inhibitory assay; PI(3)P 10 μm, ATP 2 μm, 60 minutes. As to the method: For each of the compounds prepared in Examples 1 to 33, the PIKfyve enzyme inhibitory activity was measured by using a QS S Assis PIKFYVE (PIP5K3)_ADP-Glo™ Kit (Cat. #11-118) made by Carna Bioscience. 5 μL of each of human-derived PIKfyve kinase, PI(3)P, and ATP solution was added to a 384-well plate (such that final concentrations of each solution are 375 ng/ml, 10 μm, and 2 μm, respectively). The compound to be evaluated underwent serial dilution according to the set concentrations, and 5 μL of the diluted solution was added to each well and caused a reaction for 60 minutes. MgCl2 was mixed in ADP-Glo™ solution (Promega, Cat. #V9102) to a final concentration of 100 mM, and 20 μL of the mixed solution was added to each well and caused a reaction at room temperature for 40 minutes. 40 μL of kinase detection solution was added to each well and caused a reaction at room temperature for 40 minutes. Then, the luminescence signals were detected by using a Synergy™ NEO microplate analyzer. Well to which no enzyme was added were used as a negative control, whereas wells to which no drug was added were used as a positive control, so as to calculate the enzyme inhibitory ability (%) of drugs. The 50% inhibitor concentration (IC50) values were calculated by using a GraphPad Prism software.
human-derived PIKfyve kinase, sequence (Q9Y2I7 whole entry): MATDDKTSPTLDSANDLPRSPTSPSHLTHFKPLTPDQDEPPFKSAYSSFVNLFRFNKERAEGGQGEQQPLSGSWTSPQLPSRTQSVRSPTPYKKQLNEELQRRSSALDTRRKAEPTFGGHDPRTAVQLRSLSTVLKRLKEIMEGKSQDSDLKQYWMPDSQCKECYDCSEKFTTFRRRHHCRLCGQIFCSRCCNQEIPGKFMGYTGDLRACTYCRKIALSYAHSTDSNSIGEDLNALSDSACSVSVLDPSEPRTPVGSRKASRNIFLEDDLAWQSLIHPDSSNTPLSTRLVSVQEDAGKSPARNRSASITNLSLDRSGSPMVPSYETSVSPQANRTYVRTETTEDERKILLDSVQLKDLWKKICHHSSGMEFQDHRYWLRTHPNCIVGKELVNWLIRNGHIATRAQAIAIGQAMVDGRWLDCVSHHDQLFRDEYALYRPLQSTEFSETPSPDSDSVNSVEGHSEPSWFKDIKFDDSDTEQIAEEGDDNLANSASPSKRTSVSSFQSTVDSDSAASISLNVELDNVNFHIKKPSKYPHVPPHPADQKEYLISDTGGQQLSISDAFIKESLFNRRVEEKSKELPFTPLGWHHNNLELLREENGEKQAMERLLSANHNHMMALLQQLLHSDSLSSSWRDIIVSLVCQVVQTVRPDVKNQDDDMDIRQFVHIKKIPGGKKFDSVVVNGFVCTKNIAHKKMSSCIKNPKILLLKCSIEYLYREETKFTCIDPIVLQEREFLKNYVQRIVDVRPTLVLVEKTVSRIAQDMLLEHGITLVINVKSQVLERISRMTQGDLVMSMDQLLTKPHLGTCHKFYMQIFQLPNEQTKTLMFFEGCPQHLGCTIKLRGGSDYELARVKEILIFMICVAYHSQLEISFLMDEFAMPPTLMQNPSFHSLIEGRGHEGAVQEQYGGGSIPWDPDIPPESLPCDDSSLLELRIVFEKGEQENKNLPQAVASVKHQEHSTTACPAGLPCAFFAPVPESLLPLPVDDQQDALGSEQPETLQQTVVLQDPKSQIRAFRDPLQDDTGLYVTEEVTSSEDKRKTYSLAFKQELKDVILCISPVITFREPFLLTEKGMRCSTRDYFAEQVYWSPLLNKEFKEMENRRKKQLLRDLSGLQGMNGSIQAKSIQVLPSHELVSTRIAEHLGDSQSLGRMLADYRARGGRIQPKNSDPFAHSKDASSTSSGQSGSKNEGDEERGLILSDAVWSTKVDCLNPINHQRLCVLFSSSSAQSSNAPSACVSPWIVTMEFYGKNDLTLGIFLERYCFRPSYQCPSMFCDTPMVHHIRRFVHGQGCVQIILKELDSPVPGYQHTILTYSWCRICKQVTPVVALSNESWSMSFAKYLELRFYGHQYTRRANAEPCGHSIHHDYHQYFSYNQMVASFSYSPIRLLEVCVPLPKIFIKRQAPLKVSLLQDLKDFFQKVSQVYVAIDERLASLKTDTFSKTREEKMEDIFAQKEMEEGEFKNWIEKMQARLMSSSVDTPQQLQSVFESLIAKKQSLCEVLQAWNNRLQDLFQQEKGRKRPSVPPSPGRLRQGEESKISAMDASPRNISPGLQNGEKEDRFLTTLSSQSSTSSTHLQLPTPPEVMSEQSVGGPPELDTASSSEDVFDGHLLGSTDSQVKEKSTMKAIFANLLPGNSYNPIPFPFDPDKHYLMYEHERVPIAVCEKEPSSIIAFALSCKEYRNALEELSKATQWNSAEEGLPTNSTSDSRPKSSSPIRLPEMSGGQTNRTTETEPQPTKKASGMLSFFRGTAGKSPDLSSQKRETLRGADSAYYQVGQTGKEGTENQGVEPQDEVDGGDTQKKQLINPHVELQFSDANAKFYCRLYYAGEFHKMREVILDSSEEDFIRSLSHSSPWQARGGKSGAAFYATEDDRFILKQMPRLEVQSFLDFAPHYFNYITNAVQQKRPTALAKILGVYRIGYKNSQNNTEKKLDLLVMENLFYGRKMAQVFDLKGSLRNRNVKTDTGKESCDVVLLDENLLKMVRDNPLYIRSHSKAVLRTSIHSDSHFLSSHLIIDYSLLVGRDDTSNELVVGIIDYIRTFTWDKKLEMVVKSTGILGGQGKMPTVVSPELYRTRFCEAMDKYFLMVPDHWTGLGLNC
In Table 1, when the case where the IC50 value was 50 nM or less was indicated as A, the case where the IC50 value was greater than 50 nM but equal to or less than 100 nM was indicated as B, and the case where the IC50 value was greater than 100 nM was indicated as C.

The structures appear in SMILES notation.

Broadly, the IC50 is the point on the concentration scale where inhibition reaches its midpoint. Turning to `O=C(Nc1cccc(-c2nc(N3CCOCC3)c3sc(-c4cccnc4)cc3n2)c1)[C@H]1CC[C@@H](O)CC1` [Example 32, (1s,4s)-4-hydroxy-N-(3-(4-morpholino-6-(pyridin-3-yl)thieno[3,2-d]pyrimidin-2-yl)phenyl)cyclohexane-1-carboxamide], the IC50 is no more than 0.05 µM.

Take `O=C(Nc1cccc(-c2nc(N3CCOCC3)c3sc(-c4cnco4)cc3n2)c1)c1cocn1` [Example 33, N-(3-(4-morpholino-6-(oxazol-5-yl)thieno[3,2-d]pyrimidin-2-yl)phenyl)oxazole-4-carboxamide]: the half-maximal inhibitory concentration (IC50) is no more than 0.05 µM.

The values are drawn from patent US20250042914A1, “PIKFYVE KINASE INHIBITOR” (HANMI PHARM. CO., LTD., priority 2021, published 2025).
